According to patent US20260078348A1, “MULTIPLE MYELOMA MICROORGANOSPHERES” (Xilis, Inc., priority 2022, published 2026):

Legend:
MM MOS [1] = assay: Live/dead dye (calcein AM / ethidium homodimer) imaging of drug-treated MM MOS; type: cell-based, human; conditions: for MM MOS response to treatment: 10 μM for 4 days, live/dead dye images, n=3, p<0.05 by t-test; for live/dead ratio: 10 μM, 4 days of treatment beginning on day 9 of MOS generation, compared to negative control
Method: Further studies were conducted using 10 μM carfilzomib or 10 μM selinexor treatment beginning on day 9 of MOS generation from MM patient bone marrow biopsy samples. After 4 days of treatment, live/dead dyes (calcein AM-green and ethidium homodimer-red) were added to the wells for a 30-minute incubation.

MM MOS [2] = assay: Caspase 3/7 green dye apoptosis monitoring of drug-treated MM MOS (INCUCYTE imaging); type: cell-based, human; conditions: for MM MOS death (Caspase 3/7 signal): day 11 MM MOS, 5 μM lenalidomide or 2 nM bortezomib for 92 hours, vs negative control
Method: Studies were conducted to determine the effects of various MM drugs on the MM MOS. For example, day 11 MM MOS were treated with 5 μM lenalidomide or 2 nM bortezomib for 92 hours, with no medium change during the drug treatment. Caspase 3/7 green dye was included in the medium to monitor apoptosis, and fluorescence was measured.

Row | Compound | MM MOS response to treatment (MM MOS [1]) | live/dead ratio (MM MOS [1]) | time at which MM MOS responded after onset of treatment (MM MOS [2]; 5 μM lenalidomide, INCUCYTE images taken every 2 hours) | MM MOS death (Caspase 3/7 signal) (MM MOS [2])
1 | O=C(/C=C\n1cnc(-c2cc(C(F)(F)F)cc(C(F)(F)F)c2)n1)NNc1cnccn1 [selinexor] | responded | significantly reduced |  | 
2 | Nc1cccc2c1CN(C1CCC(=O)NC1=O)C2=O (stereo not shown) [lenalidomide] |  |  | 24 h | increased
3 | CC(C)C[C@H](NC(=O)[C@H](Cc1ccccc1)NC(=O)c1cnccn1)B(O)O [bortezomib] |  |  |  | not
4 | CC(C)C[C@H](NC(=O)[C@H](CCc1ccccc1)NC(=O)CN1CCOCC1)C(=O)N[C@@H](Cc1ccccc1)C(=O)N[C@@H](CC(C)C)C(=O)[C@@]1(C)CO1 [carfilzomib] | responded | significantly reduced |  | 
